In data set [1] the target is T1, Peroxisome proliferator-activated receptor alpha (Homo sapiens) (UniProt Q07869).
T1 sequence (whole entry): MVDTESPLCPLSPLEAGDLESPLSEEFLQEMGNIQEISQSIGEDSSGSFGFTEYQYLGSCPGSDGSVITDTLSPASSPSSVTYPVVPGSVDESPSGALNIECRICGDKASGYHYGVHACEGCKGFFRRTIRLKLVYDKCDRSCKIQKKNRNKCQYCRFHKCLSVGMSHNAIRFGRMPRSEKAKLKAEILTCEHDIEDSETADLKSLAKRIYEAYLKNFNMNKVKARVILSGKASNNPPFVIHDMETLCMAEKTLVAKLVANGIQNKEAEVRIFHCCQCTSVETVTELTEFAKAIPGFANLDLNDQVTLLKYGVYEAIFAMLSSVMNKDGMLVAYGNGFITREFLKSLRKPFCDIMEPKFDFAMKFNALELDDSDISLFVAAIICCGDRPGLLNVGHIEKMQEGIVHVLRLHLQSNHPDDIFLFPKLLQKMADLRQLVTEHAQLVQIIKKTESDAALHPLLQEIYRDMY
The data set is described as follows: Agonist activity at PPARalpha (unknown origin) incubated for 3 to 16 hrs by pathhunter nuclear hormone receptor assay relative to GW7647. Set-up: concentration or dose not given beside the values.

Data set [2] can be described thus: Half life in C57BL/6J mouse at 1 mg/kg, iv measured upto 24 hrs by LC-MS/MS analysis. As to conditions: in vivo. It is filed as ADME, organism-based.

For orientation: half-life means the time needed for the level to fall by half in the phase considered.

`Cc1cc(Cc2cc(-c3ccc(Br)cc3)on2)cc(C)c1OC(C)(C)C(=O)O`: in data set [1], the Activity is 92%. Moreover, the half-life in data set [2] is 3.6 h.

The record behind these values is ChEMBL document CHEMBL4304783, “Discovery of a Novel Selective Dual Peroxisome Proliferator-Activated Receptor α/δ Agonist for the Treatment of Primary Biliary Cirrhosis” (ACS Med Chem Lett, 2019).
